Experimental findings from ChEMBL document CHEMBL2062458, “Cyclic heptapeptides, cordyheptapeptides C-E, from the marine-derived fungus Acremonium persicinum SCSIO 115 and their cytotoxic activities” (J Nat Prod, 2012) are described below.

Peptide text beside a SMILES is read from it.

What all share (assay type): functional, cell-based
One assay concerns MCF7. Nature of the assay: Cytotoxicity against human MCF7 cells after 72 hrs by sulforhodamine B assay. The following applies: MCF7, 72 h.
For the next assay, the system named is NCI-H460. The assay can be described thus: Cytotoxicity against human NCI-H460 cells after 72 hrs by sulforhodamine B assay. The following applies: NCI-H460, 72 h.
The next assay relates to SF-268. Nature of the assay: Cytotoxicity against human SF268 cells after 72 hrs by sulforhodamine B assay. To be noted: SF-268, 72 h.

Consider `CC(C)C[C@@H]1NC(=O)[C@H](C(C)C)NC(=O)[C@H](Cc2ccc(O)cc2)N(C)C(=O)[C@H](Cc2ccccc2)NC(=O)CN(C)C(=O)[C@@H]2CCCN2C(=O)[C@@H](Cc2ccccc2)N(C)C1=O` [Cordyheptapeptide C] (HELM PEPTIDE1{F.[meY].V.L.[CN([C@H](Cc1ccccc1)C(=O)[*:2])[*:1]].P.[Sar]}$PEPTIDE1,PEPTIDE1,1:R1-7:R2$$$V2.0), for which the IC50 in the assay on MCF7 was determined as 3 µM; in the assay with NCI-H460, 11.6 µM; in the assay with SF-268, 3.7 µM.
In the case of `CC(C)C[C@@H]1NC(=O)[C@H](C(C)C)NC(=O)[C@H](Cc2ccc(O)cc2)N(C)C(=O)[C@H](Cc2ccccc2)NC(=O)CN(C)C(=O)[C@@H]2CCCN2C(=O)[C@@H](Cc2ccc(O)cc2)N(C)C1=O` [Cordyheptapeptide D], the IC50 in the assay with MCF7 was 82.7 µM; in the assay with NCI-H460, more than 100 µM; in the assay on SF-268, 45.6 µM.
Consider `CC[C@@H](C)[C@@H]1NC(=O)[C@H](Cc2ccc(O)cc2)N(C)C(=O)[C@H](Cc2ccccc2)NC(=O)CN(C)C(=O)[C@@H]2CCCN2C(=O)[C@@H](Cc2ccc(O)cc2)N(C)C(=O)[C@H](CC(C)C)NC1=O` [Cordyheptapeptide E], for which the IC50 with MCF7 was determined as 2.7 µM; in the assay with NCI-H460, 4.5 µM; with SF-268, 3.2 µM.
